Results published in US20230165242A1, “RODENTICIDAL BAIT AND METHOD OF CONTROLLING TARGET HARMFUL RODENTS” (priority 2020, published 2023).

Legend:
Format in all cases: in vivo, rat
[1] = test system: rats that are homozygotic carriers of the L120Q mutation; assay: Relative toxicity of cholecalciferol, single gavage dose, L120Q rats; details: single gavage dose 30 mg/kg; 20 days
Text: (§1) Warfarin-sensitive Sprague-Dawley rats (20 male rats and 20 female rats), male and female rats that are homozygotic carriers of the L120Q mutation, male and female Sprague-Dawley rats that are homozygotic carriers of the Y139F mutation and male and female brown rats (Rattus norvegicus) that are homozygotic carriers of the Y1 39C mutation are acclimatized for 5 days in the presence of a conventional solid feed and water in unlimited amounts. The rats are fed by gavage with a single dose of a gavage solution containing cholecalciferol (Sigma-Aldrich, France) in a solvent consisting of 95% (v/v) of oil and 5% (v/v) of DMSO. The rats are fed with a conventional solid feed and water in unlimited amounts. The amount of cholecalciferol administered is 30 mg of cholecalciferol per kilogram of body weight of the rat fed by gavage. The percentage of rats surviving gavage for 20 days, counting from the first day of gavage, is noted daily. The results given in Table 4 hereunder describe the mortality observed (“SD”, Sprague-Dawley). The amount of cholecalciferol ingested by the rodents during gavage corresponds to consumption by these rodents of a bait assayed at 300 ppm of cholecalciferol.

[2] = test system: warfarin-sensitive male OFA-Sprague-Dawley rats; assay: Synergy of difethialone and cholecalciferol on warfarin-sensitive rats, gavage, survival; details: gavage once a day for 3 days; cholecalciferol alone 7.5 mg/kg; after 2 days of observation
Text: A group of warfarin-sensitive male OFA-Sprague-Dawley rats (Charles River, L′Arbresles, France), aged 10 weeks and with a body weight between 160 and 180 g, are fed by gavage once a day for 3 consecutive days with a gavage solution containing difethialone (LIPHATECH, France) and cholecalciferol (Sigma-Aldrich, France) in a solvent consisting of 95% (v/v) of oil and 5% (v/v) of DMSO. During this period of gavage, the rats are fed with a conventional solid feed and water in unlimited amounts. The amounts of difethialone and cholecalciferol administered are 125 μg per kilogram of body weight of the rat fed by gavage and 7.5 mg per kilogram of body weight of the rat fed by gavage, respectively. The rats in two control groups, each consisting of OFA-Sprague-Dawley rats, are fed by gavage in the same conditions with gavage solutions containing difethialone alone (125 μg/kg) or cholecalciferol alone (7.5 mg/kg), respectively. The percentage of rats surviving gavage is recorded daily, for 20 days counting from the first day of gavage. The results presented [FIG. 3] show the variation of the percentage of rodents surviving (in %) as a function of time (t, in days) following the first day of gavage. The rats fed by gavage with the difethialone solution (♦) have 100% survival after 20 days of observation. […]

[3] = test system: Sprague-Dawley rats that are homozygotic carriers of the Y139F mutation; assay: Relative toxicity of cholecalciferol, single gavage dose, Y139F rats; details: single gavage dose 30 mg/kg; 20 days
Text: as §1

[4] = test system: Warfarin-sensitive Sprague-Dawley rats; assay: Relative toxicity of cholecalciferol, single gavage dose, “SD” rats; details: single gavage dose 30 mg/kg; 20 days
Text: as §1

[5] = test system: warfarin-sensitive male OFA-Sprague-Dawley rats; assay: Prothrombin level, Quick's time (bromadiolone / cholecalciferol gavage)
Text: Warfarin-sensitive male OFA-Sprague-Dawley rats (Charles River, L′Arbresles, France) are fed by gavage for 3 consecutive days with a gavage solution containing bromadiolone (LIPHATECH, France) and cholecalciferol (Sigma-Aldrich, France) in a solvent consisting of 95% (v/v) of oil and 5% (v/v) of DMSO. During this period of gavage, the rats are fed with a conventional solid feed and water in unlimited amounts. The concentrations of bromadiolone and cholecalciferol in the gavage solution are 0.1 g/kg (100 ppm) and 7.5 g/kg (7500 ppm) respectively. Each rat receives daily a volume of gavage solution calculated to correspond to 1 mL of gavage solution per kilogram of body weight. The OFA-Sprague-Dawley rats in two control groups are fed by gavage in the same conditions with gavage solutions containing bromadiolone (alone) at a concentration of 100 ppm or cholecalciferol (alone) at a concentration of 7500 ppm, respectively. 24 hours after the last gavage, a volume of blood is taken from each rat by intracardiac puncture and placed in a specimen tube containing sodium citrate. The animals are euthanized after puncture and the plasma is prepared by centrifugation. Quick's time (or clotting time) is evaluated on the plasma supplemented with sodium citrate, then decalcified and recalcified in the presence of calcium thromboplastin. Quick's time is evaluated by means of an optical device for clotting analysis (Option 2plus, Bio Mèrieux®). The results are presented [FIG. 2]. The average Quick's time measured on the plasma from the rats fed by gavage with bromadiolone (bar “B”) is 12.4 seconds (±1.8), the average Quick's time measured on the plasma from the rats fed by gavage with cholecalciferol (bar “C”) is 12.4 seconds (±0.9) and the average Quick's time measured on the plasma from the rats fed by gavage with the composition comprising bromadiolone and cholecalciferol (bar “D”) is 14.1 seconds (±2.7). The differences in values of Quick's time measured between the three groups of rats are not significant. The rats in the group of rats that received the combination of bromadiolone and cholecalciferol coagulate in the same way as the rats in the group of rats that received the gavage solution containing bromadiolone on the one hand and the rats in the group of rats that received the gavage solution containing cholecalciferol on the other hand. Quick's time for rats treated with a control solution formed from oil (95%, v/v) and DMSO (5%, v/v) is (bar “A”) 12.8 seconds (±2.3). Neither the gavage solution containing bromadiolone in combination with cholecalciferol, nor the gavage solution containing bromadiolone alone, nor the gavage solution containing cholecalciferol induces an increase of Quick's time relative to the control. […]

[6] = test system: warfarin-sensitive male OFA-Sprague-Dawley rats; assay: Dose/rodenticidal response effect of cholecalciferol; details: gavage, 21 days
Protocol: A gavage solution containing cholecalciferol (Sigma-Aldrich, France) in a solvent consisting of 95% (v/v) of oil and 5% (v/v) of DMSO is administered once a day for 3 consecutive days to warfarin-sensitive male OFA-Sprague-Dawley rats (Charles River, L′Arbresles, France), aged 10 weeks and with a body weight between 160 and 180 g. During this period of gavage, the rats are fed with a conventional solid feed and water in unlimited amounts. The doses of cholecalciferol administered to the OFA-Sprague-Dawley rats, given in Table 7 hereunder, are expressed in milligrams of cholecalciferol administered per kilogram of body weight of the gavage-fed rodent.
The percentage of rats surviving gavage is noted daily for 21 days counting from the first day of gavage.

C=C1CC[C@H](O)C/C1=C/C=C1\CCC[C@]2(C)[C@@H]([C@H](C)CCCC(C)C)CC[C@@H]12 [cholecalciferol]
Female mortality, % [1]: 5% | Male mortality, % [1]: 15% | percentage of rats surviving [2]: 60% | Female mortality, % [3]: 0% | Male mortality, % [3]: 30% | Female mortality, % [4]: 30% | Male mortality, % [4]: 10% | anticoagulant effect (increase of Quick's time relative to the control) ([5]; 3 daily gavages, bromadiolone 100 ppm and/or cholecalciferol 7500 ppm solution, 1 mL/kg): not anticoagulants | average Quick's time (clotting time) ([5]; plasma 24 hours after last of 3 daily gavages, 1 mL/kg of solution with bromadiolone 100 ppm and/or cholecalciferol 7500 ppm): 12.4 s | Mortality, % ([6]; dose 5 mg/kg once a day for 3 days): 20% | Mortality, % ([6]; dose 7.5 mg/kg once a day for 3 days): 30%
